Assay results taken from ChEMBL document CHEMBL1201862, “PubChem BioAssay data set” (2004).
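Five concentrations, 48 hours, 96-well plates. GI50 is the concentration that inhibits growth by half.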 Active and inactive are the calls of the source. Rule as the data show it: active = GI50 up to about 1.1 µM and inactive = higher.

Columns and labels:
Assay in all cases: DTP human tumour cell line panel, 48 h
[1] = system: COLO 205
[2] = system: CCRF-CEM
[3] = system: NCI-H460
[4] = system: IGROV-1
[5] = system: UACC-62
[6] = system: HL-60
[7] = system: SK-OV-3
[8] = system: M14
[9] = system: A549
[10] = system: EKVX
[11] = system: SNB-19
[12] = system: SK-MEL-5
[13] = system: OVCAR-5
[14] = system: OVCAR-4
[15] = system: HCT-116
[16] = system: CAKI-1
[17] = system: SK-MEL-28
[18] = system: NCI-H226
[19] = system: U-251

Measured: GI50

Cc1cc(-c2cscn2)c(O)c([N+](=O)[O-])c1
inactive: [1] 28.3 µM | [2] 41 µM | [3] 34.2 µM | [4] 55 µM | [5] 62.7 µM | [6] 34.8 µM | [7] 16.1 µM | [8] 90.4 µM | [9] 46.6 µM | [10] 65.8 µM | [11] > 100 µM | [12] 31 µM | [13] > 100 µM | [14] 82.6 µM | [15] 49.7 µM | [16] 43 µM

O=C(O)CC[N+]1=CCC(c2ccccc2)(c2ccccc2)O1
inactive: [1] > 100 µM | [3] > 100 µM | [4] > 100 µM | [17] > 100 µM | [5] > 100 µM | [7] > 100 µM | [8] > 100 µM | [9] > 100 µM | [18] > 100 µM | [10] > 100 µM | [11] > 100 µM | [12] > 100 µM | [13] > 100 µM | [14] > 100 µM | [19] > 100 µM | [15] > 100 µM | [16] > 100 µM

CC1(C)CCC[C@]2(C)[C@@H]1CC[C@@]13O[C@@H]1C1=C(CO)C(=O)OC1=C[C@@H]23
inactive: [1] 16.5 µM | [3] 18.2 µM | [4] 5.68 µM | [17] 16.6 µM | [5] 13.5 µM | [7] 20.6 µM | [8] 15.8 µM | [9] 10.4 µM | [18] 15.7 µM | [10] 13.9 µM | [11] 13.6 µM | [12] 15.5 µM | [13] 9.71 µM | [14] 19.2 µM | [19] 24.4 µM | [15] 1.44 µM | [16] 18.8 µM

COc1ccc(NC(=O)CC(=O)N2N=C(C)C(/N=N/c3ccc(C(=O)O)cc3)C2=O)cc1 (configuration not stated)
inactive: [1] > 100 µM | [2] > 100 µM | [3] > 100 µM | [4] > 100 µM | [17] > 100 µM | [5] > 100 µM | [6] > 100 µM | [8] > 100 µM | [9] > 100 µM | [10] > 100 µM | [11] > 100 µM | [12] > 100 µM | [13] > 100 µM | [14] > 100 µM | [19] > 100 µM | [15] > 100 µM | [16] > 100 µM
